Literature values in publication PMC9329312, “Decoding kinase-adverse event associations for small molecule kinase inhibitors” (Nature Communications, 2022).

Conditions: ref FAERS

CCOc1cc2ncc(C#N)c(Nc3ccc(OCc4ccccn4)c(Cl)c3)c2cc1NC(=O)/C=C/CN(C)C [neratinib]
0.8%: Onychoclasis, % of Cases
29.7%: Nausea, % of Cases
0.225%: Joint swelling, % of Cases | Liver injury, % of Cases | Mastectomy, % of Cases | Nail discolouration, % of Cases | Oral mucosal blistering, % of Cases | Pancreatitis acute, % of Cases | Platelet count decreased, % of Cases | Pleural effusion, % of Cases | Productive cough, % of Cases
1.4%: Nasopharyngitis, % of Cases | Pain, % of Cases
7.8%: Product dose omission issue, % of Cases
1.3%: Prescribed underdose, % of Cases
0.9%: Myalgia, % of Cases | Pain in extremity, % of Cases | Product administration error, % of Cases
0.75%: Peripheral swelling, % of Cases
1.2%: Pruritus, % of Cases
0.3%: Lip swelling, % of Cases | Loss of consciousness, % of Cases | Metastases to liver, % of Cases | Metastases to lung, % of Cases | Musculoskeletal stiffness, % of Cases | Nasal dryness, % of Cases | Oral discomfort, % of Cases | Oral pain, % of Cases | Palmar-plantar erythrodysaesthesia syndrome, % of Cases
1.1%: Neuropathy peripheral, % of Cases | Oropharyngeal pain, % of Cases | Pneumonia, % of Cases
11.6%: Off label use, % of Cases
0.075%: Intracranial artery dissection, % of Cases | Ischaemic stroke, % of Cases | Joint injury, % of Cases | Kidney infection, % of Cases | Klebsiella infection, % of Cases | Large intestinal haemorrhage, % of Cases | Large intestinal obstruction, % of Cases | Localised infection, % of Cases | Lower limb fracture, % of Cases | Lower respiratory tract infection, % of Cases | Lung cancer metastatic, % of Cases | Lymph node haemorrhage, % of Cases | Lymphocyte count decreased, % of Cases | Magnetic resonance imaging abnormal, % of Cases | Magnetic resonance imaging head abnormal, % of Cases | Malignant ascites, % of Cases | Malignant neoplasm of unknown primary site, % of Cases | Malignant pleural effusion, % of Cases | Medical procedure, % of Cases | Menopausal symptoms, % of Cases | Menstruation delayed, % of Cases | Mental impairment, % of Cases | Mesenteric artery stenosis, % of Cases | Metastases to abdominal cavity, % of Cases | Metastases to lymph nodes, % of Cases | Metastases to meninges, % of Cases | Metastases to peritoneum, % of Cases | Metastases to spine, % of Cases | Microcytic anaemia, % of Cases | Micturition urgency, % of Cases | Middle ear effusion, % of Cases | Monocyte count increased, % of Cases | Monoplegia, % of Cases | Mood swings, % of Cases | Mouth haemorrhage, % of Cases | Mouth swelling, % of Cases | Movement disorder, % of Cases | Myelosuppression, % of Cases | Myocardial infarction, % of Cases | Myopia, % of Cases | Nail growth abnormal, % of Cases | Nasal ulcer, % of Cases | Neoplasm malignant, % of Cases | Nervousness, % of Cases | Neuralgia, % of Cases | Neutrophil count increased, % of Cases | Nightmare, % of Cases | Oedema peripheral, % of Cases | Oesophageal pain, % of Cases | Onychalgia, % of Cases | Onychomycosis, % of Cases | Oral herpes, % of Cases | Orthostatic hypotension, % of Cases | Osteonecrosis of jaw, % of Cases | Oxygen saturation decreased, % of Cases | Oxygen saturation increased, % of Cases | PIK3CA-activated mutation, % of Cases | Pancreatic carcinoma, % of Cases | Pancreatic mass, % of Cases | Panic attack, % of Cases | Papilloedema, % of Cases | Papule, % of Cases | Paraesthesia oral, % of Cases | Paranasal sinus hypersecretion, % of Cases | Paranasal sinus hyposecretion, % of Cases | Pericardial effusion, % of Cases | Periorbital swelling, % of Cases | Pharyngitis, % of Cases | Photopsia, % of Cases | Photosensitivity reaction, % of Cases | Physical deconditioning, % of Cases | Physical disability, % of Cases | Platelet count increased, % of Cases | Pneumonitis, % of Cases | Poor quality sleep, % of Cases | Post procedural bile leak, % of Cases | Post procedural infection, % of Cases | Post procedural swelling, % of Cases | Prescribed overdose, % of Cases | Presyncope, % of Cases | Procedural pain, % of Cases | Proctalgia, % of Cases | Product administered to patient of inappropriate age, % of Cases | Product dose omission in error, % of Cases | Product identification number issue, % of Cases | Product name confusion, % of Cases | Product packaging quantity issue, % of Cases | Product prescribing error, % of Cases | Prosthesis implantation, % of Cases | Pulmonary embolism, % of Cases | Pulmonary hypertension, % of Cases | Pulmonary pain, % of Cases
0.15%: Intra-abdominal fluid collection, % of Cases | Irritability, % of Cases | Joint stiffness, % of Cases | Labelled drug-drug interaction medication error, % of Cases | Laboratory test abnormal, % of Cases | Ligament sprain, % of Cases | Liver disorder, % of Cases | Lung disorder, % of Cases | Lymphoedema, % of Cases | Malnutrition, % of Cases | Mass, % of Cases | Metastatic neoplasm, % of Cases | Mouth ulceration, % of Cases | Muscle twitching, % of Cases | Musculoskeletal chest pain, % of Cases | Neck pain, % of Cases | Negative thoughts, % of Cases | Nephrolithiasis, % of Cases | Nervous system disorder, % of Cases | Night sweats, % of Cases | Ocular hyperaemia, % of Cases | Onycholysis, % of Cases | Osteoarthritis, % of Cases | Palpitations, % of Cases | Paronychia, % of Cases | Postoperative wound infection, % of Cases | Product physical issue, % of Cases | Product use in unapproved indication, % of Cases | Product use issue, % of Cases | Pulmonary oedema, % of Cases
0.5%: Pancreatitis, % of Cases
4.2%: Muscle spasms, % of Cases
1.6%: Metastases to central nervous system, % of Cases
1.5%: Malaise, % of Cases
0.45%: Lethargy, % of Cases | Liver function test increased, % of Cases | Malignant neoplasm progression, % of Cases | Memory impairment, % of Cases | Nasal congestion, % of Cases | Neoplasm progression, % of Cases | Paraesthesia, % of Cases
0.375%: Lung neoplasm malignant, % of Cases | Metastases to bone, % of Cases | Migraine, % of Cases | Muscular weakness, % of Cases | Nail disorder, % of Cases | Neutropenia, % of Cases | Pollakiuria, % of Cases
